Laboratory results taken from patent US11613525B2 (CTXT PTY LIMITED, priority 2018, dated 2023).
Where two headings read alike, the source gives them in different places.

Legend:
[1] = biological target: T1, human STING (HAQ) (Homo sapiens, UniProt Q86WV6, G230A/H232R/R293Q); test: biochemical; type: binding; details: for DSF huSTING (HAQ) ΔTm (° C.): 1 μM protein, compound at 100 μM; for ΔTm at 100 µM: read-out: DSF huSTING (HAQ) ΔTm (° C.)
Protocol: (§1) DSF monitors thermal unfolding of protein in the presence of a fluorescent dye and is typically performed using a real-time PCR instrument. The temperature at which a protein unfolds is measured by an increase in the fluorescence of a dye with affinity for hydrophobic parts of the protein that are gradually exposed during unfolding. The fluorescence of the dye is quenched in aqueous environments, but when the dye associates with hydrophobic sites on the unfolded protein, its fluorescence increases. The fluorescence intensity is plotted as a function of the temperature, generating a sigmoidal curve that can be described by a two-state transition. The inflection point of the transition curve (Tm) is calculated using simple equations such as that of Boltzman.
(§2) Sealed plates were then placed into a Bio-Rad CFX96/C1000 thermocycler and FRET scanning mode (λ^excitation of 490 nm and reads at λ^emission of 570 nm) was used to measure fluorescence intensity. […] The melting point (Tm) obtained for STING protein alone was subtracted from Tm obtained for protein incubated with ligand to generate ΔTm values listed in the table below.
(§3) These additional compounds were tested as described above, however the protein concentration was 2 μM.

[2] = biological target: T2, huSTING (WT) (Homo sapiens (Human), UniProt Q86WV6, H232R); test: Differential scanning fluorimetry (DSF), huSTING (WT); type: binding; details: read-out: DSF huSTING (WT) ΔTm (° C.)
Protocol: as §1, §2, §3
Target sequence in this assay (Q86WV6 other isoform, or with tags, fused parts or gaps, stated change not applied): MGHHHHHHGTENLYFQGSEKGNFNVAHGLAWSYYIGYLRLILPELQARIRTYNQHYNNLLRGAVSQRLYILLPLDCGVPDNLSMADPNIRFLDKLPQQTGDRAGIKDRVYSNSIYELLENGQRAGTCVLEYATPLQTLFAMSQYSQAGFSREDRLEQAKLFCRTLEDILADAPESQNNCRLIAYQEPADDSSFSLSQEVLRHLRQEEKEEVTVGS

[3] = biological target: huSTING (HAQ) (Homo sapiens (Human), UniProt Q86WV6, G230A/H232R/R293Q/R71H); test: THP-1 reporter cell line assay, THP-1 STING Lucia ISG cells; type: cell-based; details: THP-1 STING Lucia ISG cells; 24 h; top concentration 50 μM; read-out: Cellular EC50 huSTING (HAQ)
Sequence of huSTING (HAQ) (Q86WV6 whole entry R71H/G230A/H232R/R293Q): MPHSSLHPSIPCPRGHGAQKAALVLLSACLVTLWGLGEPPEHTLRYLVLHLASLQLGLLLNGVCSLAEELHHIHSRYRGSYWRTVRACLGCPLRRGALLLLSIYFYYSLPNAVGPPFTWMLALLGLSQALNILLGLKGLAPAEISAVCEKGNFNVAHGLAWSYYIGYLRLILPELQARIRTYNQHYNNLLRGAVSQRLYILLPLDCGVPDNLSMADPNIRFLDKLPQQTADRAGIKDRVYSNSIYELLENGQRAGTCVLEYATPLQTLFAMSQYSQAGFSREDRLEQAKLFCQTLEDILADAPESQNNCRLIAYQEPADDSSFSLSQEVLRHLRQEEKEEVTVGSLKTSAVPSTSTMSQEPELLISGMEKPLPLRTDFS

[4] = biological target: T2, huSTING (WT); test: THP-1 reporter cell line assay, THP-1-Dual KI-hSTING-R232 cells; type: cell-based; details: read-out: Cellular EC50 huSTING (WT)
Target sequence in this assay (Q86WV6 whole entry H232R): as the sequence (Q86WV6 whole entry R71H/G230A/H232R/R293Q) above, with H71R, A230G, Q293R counted along it

[5] = biological target: T1, human STING (HAQ); details: read-out: SPR (HAQ) KD; 25° C.
[6] = 1 μM protein, compound at 100 μM

T1 sequence (Q86WV6 whole entry G230A/H232R/R293Q, looked up): as the sequence (Q86WV6 whole entry R71H/G230A/H232R/R293Q) above, with H71R counted along it

Row | Structure (SMILES) | DSF huSTING (HAQ) ΔTm (° C.) [1] | ΔTm at 100 µM [2] | EC50 [3] | EC50 [4] | Kd [5] | ΔTm at 100 µM [1] | ΔTm at 100 µM [2, 6]
1 | NC(=O)c1ccc(OCc2c(C(=O)O)sc3cccc(F)c23)cc1 [Example 1, 3-((4-Carbamoylphenoxy)methyl)-4-fluorobenzo[b]thiophene-2-carboxylic acid] | 7.78 °C | 0.99 °C | > 50 µM | > 50 µM | 32 µM |  | 
2 | NC(=O)c1ccc(OCc2c(C(=O)OCc3ccccc3)sc3cccc(F)c23)cc1 [Example 3, Benzyl 3-((4-carbamoylphenoxy)methyl)-4-fluorobenzo[b]thiophene-2-carboxylate] | −0.47 °C |  | 2.94 µM | > 50 µM | 3500 µM |  | 
3 | CCOC(=O)c1sc2ccccc2c1COc1ccc(C(N)=O)cc1 [Example 5, Ethyl 3-((4-carbamoylphenoxy)methyl)benzo[b]thiophene-2-carboxylate] |  |  | 8.22 µM | > 50 µM |  | -0.48 °C | 0.07 °C
4 | NC(=O)c1ccc(OCc2c(C(=O)O)sc3ccccc23)cc1 [Example 6, 3-((4-Carbamoylphenoxy)methyl)benzo[b]thiophene-2-carboxylic acid] | 3.33 °C | -1.15 °C | > 50 µM | > 50 µM | 90 µM |  | 
5 | CCOC(=O)c1sc2cc(Cl)ccc2c1COc1ccc(C(N)=O)cc1 [Example 9, Ethyl 3-((4-carbamoylphenoxy)methyl)-6-chlorobenzo[b]thiophene-2-carboxylate] |  |  | > 50 µM | > 50 µM |  | 0.71 °C | 0.51 °C
6 | NC(=O)c1ccc(OCc2c(C(=O)O)sc3cc(Cl)ccc23)cc1 [Example 10, 3-((4-carbamoylphenoxy)methyl)-6-chlorobenzo[b]thiophene-2-carboxylic acid] | 1.7 °C | -2.34 °C | > 50 µM | > 50 µM | 187 µM |  | 
7 | CCOC(=O)c1sc2c(Cl)cccc2c1COc1ccc(C(N)=O)cc1 [Example 11, Ethyl 3-((4-carbamoylphenoxy)methyl)-7-chlorobenzo[b]thiophene-2-carboxylate] |  |  | 16.2 µM | 25.6 µM |  | 0.29 °C | 0.13 °C
8 | NC(=O)c1ccc(OCc2c(C(=O)O)sc3c(Cl)cccc23)cc1 [Example 12, 3-((4-Carbamoylphenoxy)methyl)-7-chlorobenzo[b]thiophene-2-carboxylic acid] | 9 °C | 3.29 °C | > 50 µM | > 50 µM | 5.95 µM |  | 
9 | CCOC(=O)c1sc2ccc(Cl)cc2c1COc1ccc(C(N)=O)cc1 [Example 13, Ethyl 3-((4-carbamoylphenoxy)methyl)-5-chlorobenzo[b]thiophene-2-carboxylate] |  |  | > 50 µM | > 50 µM |  | -0.15 °C | -0.59 °C
10 | NC(=O)c1ccc(OCc2c(C(=O)O)sc3ccc(Cl)cc23)cc1 [Example 14, 3-((4-Carbamoylphenoxy)methyl)-5-chlorobenzo[b]thiophene-2-carboxylic acid] | 0.09 °C | -4.26 °C | > 50 µM | > 50 µM | 120 µM |  | 
11 | COc1cc(C(N)=O)cc(OC)c1OCc1c(C(=O)O)sc2cccc(Cl)c12 [Example 42, 3-((4-Carbamoyl-2,6-dimethoxyphenoxy)methyl)-4-chlorobenzo[b]thiophene-2-carboxylic acid] | 2.83 °C | -0.64 °C |  |  | 80.5 µM |  | 
12 | N#Cc1cc(C(N)=O)ccc1OCc1c(C(=O)O)sc2cccc(Cl)c12 [Example 44, 3-((4-Carbamoyl-2-cyanophenoxy)methyl)-4-chlorobenzo[b]thiophene-2-carboxylic acid] | 7.64 °C | 1.3 °C |  |  | 7.95 µM |  | 
13 | CCOC(=O)c1sc2cccc(F)c2c1COc1ccc(C(N)=O)cc1F [Example 58, Ethyl 3-((4-carbamoyl-2-fluorophenoxy)methyl)-4-fluorobenzo[b]thiophene-2-carboxylate] |  |  | 9.19 µM | 27.7 µM | > 10000 µM | 0.43 °C | 
